Four molecules from patent US9814703B2, “Methods for treating cancer by activation of BMP signaling” (The Board of Trustees of the Leland Stanford Junior …, priority 2013, dated 2017) can be followed below.

Assay [1] has as its system primary human bladder stromal cells. The assay is described as follows: Hh pathway stimulation of primary human bladder stromal cells, gene expression by quantitative RT-PCR. It is filed as cell-based. To be noted: 24 hours; for Expression of BMP4 increased as compared to the unstimulated control / Expression of BMP5 increased as compared to the unstimulated control / Expression of GLI1 increased as compared to the unstimulated control: serum-starved, SAG 200 nM or Shh conditioned medium (ShhN). The source says:
(§1) To determine whether Hh signaling regulates expression of BMP4 and BMP5 in human bladder, we first examined the expression of Hh pathway components in primary human bladder fibroblasts and epithelial cells. […] To evaluate response to the Hh signal, we treated cultured human bladder stromal and urothelial cells with ShhN protein or with the chemical pathway agonist SAG^24. […] Concomitant with the increase in GLI1 mRNA upon stimulation of the cultured human bladder stromal fibroblasts, we noted an increase in levels of BMP4 and BMP5 transcripts (FIG. 4B).
For BBN-induced bladder carcinogenesis, a 0.1% concentration of BBN was provided to mice ad libitum for 4-6 months. For Smo deletion experiments, a transgene expressing tamoxifen-activated Cre was used to selectively inactivate a conditional allele of Smo. To activate the BMP pathway, Alzet osmotic pumps were implanted subcutaneously to administer FK506 to mice exposed to BBN. Quantitative RT-PCR was used for measurement of RNA levels in samples isolated from the human and mouse bladder samples. For in vitro cultures, primary human bladder urothelial and stromal cells were treated with FK506 for 12 hours, or serum-starved and treated with SAG or Shh conditioned medium with or without cyclopamine for 24 hours prior to gene expression analyses.
Bladder samples were snap frozen in liquid nitrogen, homogenized with a mortar and pestle, and RNA extracted with the RNeasy Plus Mini kit (Qiagen). For quantitative RT-PCR of mRNA transcripts, first-strand cDNA was made using the SuperScript III First-Strand Synthesis SuperMix (Invitrogen 18080-400). Quantitative RT-PCR was performed using iQ SYBR Green Supermix (Bio-Rad 170-8880) and the Bio-Rad iCycler.
Primary human bladder urothelial cells (ScienCell 4320) and bladder stromal fibroblasts (ScienCell 4330) were cultured in Urothelial Cell Medium (ScienCell 4321) and Fibroblast Medium (ScienCell 2301) respectively to sub-confluency. Cells were then starved for 12 hours, followed by addition of Shh conditioned medium in the absence or in the presence of cyclopamine (3 uM, Toronto Research Chemicals), or treated with the Shh pathway agonist SAG (200 nM, Millipore) for 24 hours. In separate experiments, cells were treated with 20 ng/ml FK506 (Cayman Chemical) or DMSO for 12 hours. Following treatment, RNA was extracted using the Trizol reagent.

In assay [2] the test system is primary human bladder urothelial cells. The assay is described as follows: Hh pathway stimulation of primary human bladder urothelial cells, gene expression by quantitative RT-PCR. It is filed as cell-based. To be noted: SAG 200 nM or ShhN, 24 hours.
Text: as §1
For BBN-induced bladder carcinogenesis, a 0.1% concentration of BBN was provided to mice ad libitum for 4-6 months. For Smo deletion experiments, a transgene expressing tamoxifen-activated Cre was used to selectively inactivate a conditional allele of Smo. […] Quantitative RT-PCR was used for measurement of RNA levels in samples isolated from the human and mouse bladder samples. […]
(§2) Bladder samples were snap frozen in liquid nitrogen, homogenized with a mortar and pestle, and RNA extracted with the RNeasy Plus Mini kit (Qiagen). For quantitative RT-PCR of mRNA transcripts, first-strand cDNA was made using the SuperScript III First-Strand Synthesis SuperMix (Invitrogen 18080-400). Quantitative RT-PCR was performed using iQ SYBR Green Supermix (Bio-Rad 170-8880) and the Bio-Rad iCycler. […]

Assay [3] has the same test system. The assay is described as follows: BMP pathway activation in cultured urothelial cells, BMP target gene expression by quantitative RT-PCR. It is filed as cell-based. The conditions noted are these: 20 ng/ml FK506, 12 hours.
Text: As Bmp4 and Bmp5 secreted from stromal cells have the potential to act on urothelium, we tested the ability of cultured urothelial cells to respond to BMP pathway activation. For this purpose we selected FK506, an FDA-approved drug recently shown to activate BMP pathway at concentrations below those required for its immunosuppressant effects^27. […] Loss of Shh expression in human invasive carcinomas, as noted previously (FIG. 1A), would be expected to disrupt this signal feedback; this expectation was confirmed by a dramatic reduction of BMP4 and BMP5 expression in human invasive urothelial carcinoma as compared to benign bladder (FIG. 4D).
For BBN-induced bladder carcinogenesis, a 0.1% concentration of BBN was provided to mice ad libitum for 4-6 months. […] Quantitative RT-PCR was used for measurement of RNA levels in samples isolated from the human and mouse bladder samples. […]
as §2

In assay [4] the test system is BBN-induced bladder cancer. The assay is described as follows: BBN-induced bladder carcinogenesis in mice, progression to invasive carcinoma (histopathology). It is filed as in vivo. The source says:
To investigate the role of Bmp pathway activity in bladder tumor progression and to test the possibility that Bmp pathway activation might stimulate urothelial differentiation, which in turn might impede tumor progression, we exposed mice to BBN for 4 months, then initiated treatment with FK506 for another month while also continuing exposure to BBN (FIG. 5A). We have previously noted that mice exposed to BBN for 4 months develop pre-malignant lesions indistinguishable from human carcinoma-in-situ but not invasive carcinoma, which requires further BBN exposure^6.
For BBN-induced bladder carcinogenesis, a 0.1% concentration of BBN was provided to mice ad libitum for 4-6 months. For Smo deletion experiments, a transgene expressing tamoxifen-activated Cre was used to selectively inactivate a conditional allele of Smo. To activate the BMP pathway, Alzet osmotic pumps were implanted subcutaneously to administer FK506 to mice exposed to BBN. Quantitative RT-PCR was used for measurement of RNA levels in samples isolated from the human and mouse bladder samples. […]
A 0.1% concentration of BBN (TCI America) was dissolved in drinking water, and BBN-containing water was provided to mice ad libitum for 4-6 months in a dark bottle. […] Bladders were collected and analyzed after 4 to 6 months of BBN administration. […]

[5] abbreviates: cyclopamine 3 uM added to Hh pathway stimulation.

As for “ShhN: ShhN protein, Hh ligand, applied as Shh conditioned medium”, in assay [1], the “Expression of BMP4 increased as compared to the unstimulated control” value is on record as 3.9 fold, the “Expression of BMP5 increased as compared to the unstimulated control” value is reported as 1.6 fold and the “Expression of GLI1 increased as compared to the unstimulated control” value is 1.6 fold. Besides, the “Response of urothelial cells to Hh pathway stimulation (GLI1 expression)” value in assay [2] is “did not respond”.

`CC1=C2C[C@H]3[C@@H](CC=C4C[C@@H](O)CC[C@@]43C)[C@@H]2CC[C@]12O[C@@H]1C[C@H](C)CN[C@H]1[C@H]2C` [cyclopamine]: in assay [1] (setting [5]), the “Effect of added cyclopamine on the stimulated increase of BMP4 and BMP5 expression” value was “reversed”; the “Effect of added cyclopamine on the stimulated increase of GLI1 expression” value was “reversed”.

With `CNC1CCC(N(Cc2cccc(-c3ccncc3)c2)C(=O)c2sc3ccccc3c2Cl)CC1` (centres unmarked) [SAG], in assay [1], the “Expression of BMP4 increased as compared to the unstimulated control” value was 5.8 fold, the “Expression of BMP5 increased as compared to the unstimulated control” value worked out at 2 fold and the “Expression of GLI1 increased as compared to the unstimulated control” value was found to be 5.4 fold. Moreover, the “Response of urothelial cells to Hh pathway stimulation (GLI1 expression)” value in assay [2] is reported as “did not respond”.

As for `C=CC[C@@H]1/C=C(\C)C[C@H](C)C[C@H](OC)[C@H]2O[C@@](O)(C(=O)C(=O)N3CCCC[C@H]3C(=O)O[C@H](/C(C)=C/[C@@H]3CC[C@@H](O)[C@H](OC)C3)[C@H](C)[C@@H](O)CC1=O)[C@H](C)C[C@@H]2OC` [FK506], in assay [3], the “Expression of BMP target gene CDKN1B increased as compared to the DMSO control” value came to 2.4 fold and the “Expression of BMP target gene ID4 increased as compared to the DMSO control” value worked out at 1.6 fold. For the same molecule, the “Progression of bladder cancer in mice” value in assay [4] (low-dose FK506, murine BBN model) is “halts progression”. In assay [4] (mice exposed to BBN 5 months, FK506 0.05 mg/kg/day by subcutaneous osmotic pump during the final month, cohort of 10 mice (control 7 of 9 invasive)), the “Development of invasive carcinoma in treated mice” value is “no invasive carcinoma was observed”.
